Results taken from PubChem BioAssay (NCI).
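Five compound concentrations were applied to cells in 96-well plates for 48 hours; endpoints were derived by simple linear interpolation of the resulting dose-response curve. The concentration for 50% growth inhibition is given as GI50. TGI marks complete inhibition of growth.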

Columns and labels:
Experiment in all cases: NCI-60 cell line screen, 48 h
786-0 renal = system: 786-0 renal
A549 NSCLC = system: A549 NSCLC
DU-145 prostate = system: DU-145 prostate
NCI-H522 lung = system: NCI-H522 lung
OVCAR-5 ovarian = system: OVCAR-5 ovarian
RPMI-8226 leukemia = system: RPMI-8226 leukemia
RXF 393 renal = system: RXF 393 renal
SK-MEL-28 melanoma = system: SK-MEL-28 melanoma
SK-OV-3 ovarian = system: SK-OV-3 ovarian
SNB-19 CNS = system: SNB-19 CNS

Structure (SMILES) | GI50 (786-0 renal) | TGI (786-0 renal) | GI50 (A549 NSCLC) | TGI (A549 NSCLC) | GI50 (DU-145 prostate) | TGI (DU-145 prostate) | GI50 (NCI-H522 lung) | TGI (NCI-H522 lung) | GI50 (OVCAR-5 ovarian) [µM] | TGI (OVCAR-5 ovarian) [µM] | GI50 (RPMI-8226 leukemia) | TGI (RPMI-8226 leukemia) | GI50 (RXF 393 renal) | TGI (RXF 393 renal) | GI50 (SK-MEL-28 melanoma) | TGI (SK-MEL-28 melanoma) | GI50 (SK-OV-3 ovarian) | TGI (SK-OV-3 ovarian) | GI50 (SNB-19 CNS) | TGI (SNB-19 CNS)
COc1ccc(OCC(O)CN2CCN(c3ccc(Cl)cc3)CC2)cc1 (centres undefined) | > 100 µM | > 100 µM | > 100 µM | > 100 µM | > 100 µM | > 100 µM | 69.3 µM | > 100 µM | > 100 | > 100 | > 100 µM | > 100 µM | 79.1 µM | > 100 µM | > 100 µM | > 100 µM | > 100 µM | > 100 µM | 77.7 µM | > 100 µM
COc1ccc(Cc2nc3cc(OC)c(OC)cc3c(=O)[nH]2)cc1 | 7.31 µM | > 100 µM | 3.61 µM | > 54.3 µM | 9.38 µM | > 67 µM | 14.5 µM | > 100 µM | 3.74 | > 74.1 | 4.05 µM | > 100 µM | 3.95 µM | 24.3 µM | 11.5 µM | 65.1 µM | 88.5 µM | > 100 µM | 7.23 µM | > 100 µM
CCSc1ncc(Br)c(Sc2nc(N)nc3nc[nH]c23)n1 | 3.22 µM | > 100 µM | 21 µM | > 100 µM | 2.95 µM | 60.9 µM | 3.18 µM | 64.9 µM | 5.83 | > 100 | 3.87 µM | > 100 µM | 5.37 µM | > 100 µM | 46.9 µM | > 100 µM | 2.76 µM | 48.9 µM | > 100 µM | > 100 µM
Cc1ccc(C2=C(Cl)C(=O)C(c3ccc(C)cc3)=C(Cl)C2=O)cc1 | – | > 100 µM | – | > 100 µM | – | > 100 µM | – | > 100 µM | – | > 100 | – | > 100 µM | – | > 100 µM | – | > 100 µM | – | > 100 µM | – | > 100 µM
N/C(=N\C(N)=N\c1nc2ccccc2s1)c1cnccn1 | 2.97 µM | > 100 µM | – | – | 4.34 µM | > 100 µM | 2.16 µM | 6.16 µM | 3.68 | > 100 | 3.2 µM | > 100 µM | 1.93 µM | 3.96 µM | 2.3 µM | 6.06 µM | 1.84 µM | 3.83 µM | 3.57 µM | 41.6 µM
OCC#Cc1ccccc1C#Cc1ccc(C#Cc2ccccc2)cc1 | 23.5 µM | 55.9 µM | 15.3 µM | 33.3 µM | 16.7 µM | 34.4 µM | 55.2 µM | > 100 µM | 17.7 | 34.9 | 6.05 µM | 22.2 µM | 26.2 µM | 54.3 µM | 38.3 µM | > 100 µM | – | – | 35.9 µM | > 100 µM
COc1cc(N(CCC#N)CCC#N)ccc1/C(N=Nc1ccc(C(=O)O)cc1)=N/NC(=O)c1cc(Br)ccc1O | 97.8 µg/mL | > 150 µg/mL | 79.4 µg/mL | > 150 µg/mL | > 150 µg/mL | > 150 µg/mL | 110 µg/mL | > 150 µg/mL | – | – | 127 µg/mL | > 150 µg/mL | 66.3 µg/mL | > 150 µg/mL | > 150 µg/mL | > 150 µg/mL | 86.2 µg/mL | > 150 µg/mL | > 150 µg/mL | > 150 µg/mL
